Data as given in patent US20220356174A1, “PYRIDIN-2-ONE COMPOUNDS USEFUL AS SMARCA2 ANTAGONISTS” (Epizyme, Inc., priority 2018, published 2022).
Like-named read-outs stand apart in the source and are kept apart here.

Columns and labels:
H358 cells = assay: High-throughput proliferation (HTP) assay for H358 cells (CellTiter-Glo, 7 days); format: cell-based; details: Homo sapiens, NCI-H358, 168 h, read-out: H358 SMARCA2 IC50
Summary of the method: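 Cells were plated at 1,000 cells/well in RPMI 1640 + 10% HI-FBS + 1% pen/strep on pre-dispensed compound and incubated 7 days at 37 °C, 5% CO2. Viability was read as ATP luminescence with CellTiter-Glo after 30 min at RT. DMSO served as 0% and 10 µM doxorubicin as 100% inhibition for EC50/IC50.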

A549 cells = assay: High-throughput proliferation (HTP) assay for A549 cells (CellTiter-Glo, 7 days); format: cell-based; details: Homo sapiens, 168 h, read-out: A549 SMARCA2 IC50
Summary of the method: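 A549 cells plated at 62.5 cells/well in F12K + 10% HI-FBS onto pre-dispensed compound, grown 7 days at 37° C., 5% CO2. Viability by CellTiter-Glo luminescence after 30 min at RT; EC50/IC50 from DMSO (0%) and 10 μM Doxorubicin (100%) inhibition controls.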

FL-SMARCA4 = FL-SMARCA4 (Homo sapiens, UniProt P51532); assay: SMARCA4 ATPase activity assay (ADP-Glo, chicken mononucleosome substrate)
[1] = target: T1, FL-SMARCA2 (full-length human SMARCA2 isoform 1) (Homo sapiens, UniProt P51531); assay: SMARCA2 ATPase activity assay (ADP-Glo, chicken mononucleosome substrate); format: biochemical; details: ATPase assay, enzyme 5 nM, ATP 250 uM, chicken mononucleosome 10 nM, 30 min preincubation
T1 construct: FLAG tag (YKDDDDK) (C); made in house; host or cells: Sf21 insect cells (baculovirus, pFastBacI)

[2] = FL-SMARCA4 IC>50, Table 3c.2, ATPase assay, enzyme 5 nM, ATP 250 uM, chicken mononucleosome 10 nM, 30 min preincubation
[3] = Table 3d.1, read-out: FL-SMARCA2 IC>50

T1 sequence (P51531 with tags, fused parts or gaps): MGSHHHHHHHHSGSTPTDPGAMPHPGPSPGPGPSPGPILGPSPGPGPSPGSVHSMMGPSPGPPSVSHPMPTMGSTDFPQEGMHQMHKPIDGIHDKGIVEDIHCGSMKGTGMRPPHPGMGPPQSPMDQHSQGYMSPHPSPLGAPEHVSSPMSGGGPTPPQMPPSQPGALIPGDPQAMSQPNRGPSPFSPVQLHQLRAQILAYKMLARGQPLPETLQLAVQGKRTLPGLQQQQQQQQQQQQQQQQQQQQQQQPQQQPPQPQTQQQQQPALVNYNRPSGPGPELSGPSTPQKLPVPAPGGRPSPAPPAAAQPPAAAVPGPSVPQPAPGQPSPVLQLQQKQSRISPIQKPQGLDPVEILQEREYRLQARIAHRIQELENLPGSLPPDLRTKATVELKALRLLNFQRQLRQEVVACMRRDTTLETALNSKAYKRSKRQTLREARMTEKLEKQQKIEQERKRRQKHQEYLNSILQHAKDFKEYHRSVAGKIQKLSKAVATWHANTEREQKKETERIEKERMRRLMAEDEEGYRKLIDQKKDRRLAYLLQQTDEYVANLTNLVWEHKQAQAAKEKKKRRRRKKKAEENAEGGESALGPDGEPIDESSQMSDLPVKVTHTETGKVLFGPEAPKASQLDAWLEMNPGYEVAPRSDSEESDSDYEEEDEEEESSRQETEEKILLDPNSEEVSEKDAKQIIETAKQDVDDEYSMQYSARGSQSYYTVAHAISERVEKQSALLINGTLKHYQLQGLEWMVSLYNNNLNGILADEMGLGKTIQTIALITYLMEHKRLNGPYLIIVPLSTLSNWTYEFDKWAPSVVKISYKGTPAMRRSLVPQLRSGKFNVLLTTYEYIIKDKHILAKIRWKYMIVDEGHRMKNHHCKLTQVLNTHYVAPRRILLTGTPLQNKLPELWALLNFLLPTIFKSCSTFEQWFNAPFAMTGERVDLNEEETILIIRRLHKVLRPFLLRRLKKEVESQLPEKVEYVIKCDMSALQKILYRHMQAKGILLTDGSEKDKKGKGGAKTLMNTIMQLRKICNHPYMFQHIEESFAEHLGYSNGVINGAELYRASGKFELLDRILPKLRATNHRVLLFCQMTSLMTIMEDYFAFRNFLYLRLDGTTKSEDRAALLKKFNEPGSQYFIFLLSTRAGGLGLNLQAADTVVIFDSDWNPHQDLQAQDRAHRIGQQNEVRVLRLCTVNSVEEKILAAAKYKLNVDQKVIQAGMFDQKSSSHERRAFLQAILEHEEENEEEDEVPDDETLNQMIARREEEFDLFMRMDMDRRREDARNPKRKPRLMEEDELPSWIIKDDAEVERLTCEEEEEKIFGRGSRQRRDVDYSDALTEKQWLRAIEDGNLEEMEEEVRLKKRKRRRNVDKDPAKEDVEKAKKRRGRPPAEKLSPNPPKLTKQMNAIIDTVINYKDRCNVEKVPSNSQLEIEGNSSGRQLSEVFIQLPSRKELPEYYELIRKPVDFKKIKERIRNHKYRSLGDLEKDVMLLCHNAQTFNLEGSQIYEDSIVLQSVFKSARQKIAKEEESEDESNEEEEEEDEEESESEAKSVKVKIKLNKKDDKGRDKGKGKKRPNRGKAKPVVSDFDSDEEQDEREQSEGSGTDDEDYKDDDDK
FL-SMARCA4, sequence (P51532 whole entry, canonical isoform): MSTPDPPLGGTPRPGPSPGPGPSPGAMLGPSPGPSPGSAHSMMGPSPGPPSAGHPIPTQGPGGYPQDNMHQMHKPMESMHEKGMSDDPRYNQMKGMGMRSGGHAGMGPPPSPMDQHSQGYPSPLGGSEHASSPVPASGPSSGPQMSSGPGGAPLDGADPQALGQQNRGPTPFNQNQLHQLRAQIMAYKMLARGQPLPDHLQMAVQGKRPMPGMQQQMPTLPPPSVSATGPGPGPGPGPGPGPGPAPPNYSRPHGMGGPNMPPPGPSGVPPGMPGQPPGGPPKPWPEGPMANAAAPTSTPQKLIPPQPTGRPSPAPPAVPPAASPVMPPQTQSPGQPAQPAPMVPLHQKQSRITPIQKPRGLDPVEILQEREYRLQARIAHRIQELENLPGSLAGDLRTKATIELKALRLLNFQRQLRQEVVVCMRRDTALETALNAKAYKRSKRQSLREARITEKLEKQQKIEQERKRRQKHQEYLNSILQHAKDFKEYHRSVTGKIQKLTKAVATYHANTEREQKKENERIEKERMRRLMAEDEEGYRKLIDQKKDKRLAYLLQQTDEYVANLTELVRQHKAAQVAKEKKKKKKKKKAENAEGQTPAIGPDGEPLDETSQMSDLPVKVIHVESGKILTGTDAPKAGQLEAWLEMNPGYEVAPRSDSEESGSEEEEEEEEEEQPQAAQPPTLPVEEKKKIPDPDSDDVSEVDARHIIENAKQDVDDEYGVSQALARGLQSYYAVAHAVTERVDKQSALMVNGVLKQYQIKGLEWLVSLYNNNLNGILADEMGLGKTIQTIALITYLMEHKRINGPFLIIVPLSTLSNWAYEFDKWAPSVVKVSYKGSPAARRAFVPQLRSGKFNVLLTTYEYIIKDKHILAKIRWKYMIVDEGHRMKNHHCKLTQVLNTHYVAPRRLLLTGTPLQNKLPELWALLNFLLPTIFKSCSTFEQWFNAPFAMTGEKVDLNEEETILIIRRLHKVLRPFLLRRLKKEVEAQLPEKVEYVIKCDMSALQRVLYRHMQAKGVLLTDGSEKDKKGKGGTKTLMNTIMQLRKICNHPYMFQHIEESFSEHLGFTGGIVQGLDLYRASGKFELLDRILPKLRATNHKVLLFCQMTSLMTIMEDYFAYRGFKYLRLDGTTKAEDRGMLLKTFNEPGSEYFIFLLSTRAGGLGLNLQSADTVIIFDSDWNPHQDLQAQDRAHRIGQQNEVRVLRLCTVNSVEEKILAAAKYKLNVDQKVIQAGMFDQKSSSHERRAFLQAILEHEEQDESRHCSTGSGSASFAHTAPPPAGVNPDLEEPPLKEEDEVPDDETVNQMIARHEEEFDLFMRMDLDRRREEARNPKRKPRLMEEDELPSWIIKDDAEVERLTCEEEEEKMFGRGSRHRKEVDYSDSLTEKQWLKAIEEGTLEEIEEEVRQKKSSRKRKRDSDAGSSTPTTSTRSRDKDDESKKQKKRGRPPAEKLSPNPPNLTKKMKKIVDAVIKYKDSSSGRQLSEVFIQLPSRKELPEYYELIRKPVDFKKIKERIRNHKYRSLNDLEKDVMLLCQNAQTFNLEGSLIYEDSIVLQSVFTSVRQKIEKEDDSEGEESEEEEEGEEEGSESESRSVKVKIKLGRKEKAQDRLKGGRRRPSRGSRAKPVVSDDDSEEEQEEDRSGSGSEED

| IC50 (H358 cells) [nM] | IC50 (A549 cells) [nM] | IC50 (FL-SMARCA4; [2]) [nM] | IC50 ([1]; Table 3c.1) [nM] | IC50 (FL-SMARCA4; FL-SMARCA4 IC50) [nM] | IC50 [1, 3] [nM] | SMILES |
| --- | --- | --- | --- | --- | --- | --- |
| > 10000 | > 10000 | 384 | 191 | – | – | CNC(=O)Cn1cc(C#Cc2cc(C(=O)Nc3cc(F)c(=O)n(CC(F)F)c3)sc2Cl)cn1 [Compound 121c] |
| 7380 | 5020 | – | – | 17300 | 16800 | CC1(C)CC(C#Cc2cc(C(=O)Nc3cc(F)c(=O)n(CC(F)F)c3)sc2Cl)CC(C)(C)N1 [Compound 121d] |
| > 10000 | 4600 | 130 | 52 | – | – | O=C(Nc1cc(F)c(=O)n(CC(F)F)c1)c1cc(C#Cc2cnn(CCO)c2)c(Cl)s1 [Compound 122c] |
| > 10000 | 8440 | – | – | 835 | 253 | O=C(Nc1cc(F)c(=O)n(CC(F)F)c1)c1cc(C#Cc2ccc3ccnn3c2)c(Cl)s1 [Compound 122d] |
| > 10000 | 3980 | 1070 | 471 | – | – | CN(C)CCn1cc(C#Cc2cc(C(=O)Nc3cc(F)c(=O)n(CC(F)F)c3)sc2Cl)cn1 [Compound 123c] |
| > 10000 | > 10000 | – | – | 1580 | 520 | O=C(Nc1cc(F)c(=O)n(CC(F)F)c1)c1cc(C#CCn2cccn2)c(Cl)s1 [Compound 123d] |
| 7230 | 1080 | 17.7 | 10.8 | – | – | Nc1cc(C#Cc2cc(C(=O)Nc3cc(F)c(=O)n(CC(F)F)c3)sc2Cl)ccn1 [Compound 124c] |
| > 10000 | > 10000 | – | – | > 50000 | > 50000 | O=C(Nc1cc(F)c(=O)n(CC(F)F)c1)c1cc(-c2ccco2)on1 [Compound 124d] |
| > 10000 | 4460 | 166 | 52.2 | – | – | NCc1nc(C#Cc2cc(C(=O)Nc3cc(F)c(=O)n(CC(F)F)c3)sc2Cl)cs1 [Compound 125c] |
| > 10000 | 4010 | 957 | 235 | – | – | O=C(Nc1cc(F)c(=O)n(CC(F)F)c1)c1cc(C#Cc2csc(C(F)(F)F)n2)c(Cl)s1 [Compound 126c] |
| > 10000 | > 10000 | – | – | 4370 | 1580 | O=C(Nc1cc(F)c(=O)n(CC(F)F)c1)c1cc(C#CCn2cnnc2)c(Cl)s1 [Compound 126d] |
| > 10000 | > 10000 | – | – | 1450 | 586 | O=C(Nc1cc(F)c(=O)n(CC(F)F)c1)c1cc(C#CCn2cncn2)c(Cl)s1 [Compound 127d] |
| 3890 | 5130 | 823 | 211 | – | – | CN(C)Cc1cccc(C#Cc2cc(C(=O)Nc3cc(F)c(=O)n(CC(F)F)c3)sc2Cl)c1 [Compound 128c] |
| 4050 | 3240 | – | – | > 50000 | > 50000 | Cn1cc(C#Cc2cc(C(=O)Nc3cc([N+](=O)[O-])c(=O)n(CC(F)F)c3)sc2C(F)(F)F)cn1 [Compound 128d] |
| > 10000 | > 10000 | 143 | 51.3 | – | – | CNC(=O)c1cncc(C#Cc2cc(C(=O)Nc3cc(F)c(=O)n(CC(F)F)c3)sc2Cl)c1 [Compound 129c] |
| > 10000 | 2170 | – | – | 161 | 58.4 | O=C(Nc1cc(F)c(=O)n(CC(F)F)c1)c1cc(C#C[C@H]2CCC[C@H](O)C2)c(Cl)s1 [Compound 129d] |
| > 10000 | 1210 | 44 | 16.6 | – | – | CNC(=O)c1cc(C#Cc2cc(C(=O)Nc3cc(F)c(=O)n(CC(F)F)c3)sc2Cl)ccn1 [Compound 130c] |
| 6750 | 3370 | – | – | 132 | 30.9 | O=C(Nc1cc(F)c(=O)n(CC(F)F)c1)c1cc(C#Cc2nncs2)c(Cl)s1 [Compound 130d] |
| > 10000 | > 10000 | 13.7 | 8.68 | – | – | O=C(O)c1cccc(C#Cc2cc(C(=O)Nc3cc(F)c(=O)n(CC(F)F)c3)sc2Cl)c1 [Compound 131c] |
| > 10000 | > 10000 | – | – | > 50000 | > 50000 | CC(N)C#Cc1sc(C(=O)Nc2cc(F)c(=O)n(CC(F)F)c2)cc1Cl (stereo not drawn) [Compound 131d] |
| > 10000 | 7980 | – | – | > 50000 | > 50000 | CN1CCCC(C#Cc2sc(C(=O)Nc3cc(F)c(=O)n(CC(F)F)c3)cc2Cl)C1 (stereo not drawn) [Compound 132d] |

| IC50 (H358 cells) [nM] | IC50 (A549 cells) [nM] | IC50 (FL-SMARCA4; [2]) [nM] | IC50 ([1]; Table 3c.1) [nM] | IC50 (FL-SMARCA4; FL-SMARCA4 IC50) [nM] | IC50 [1, 3] [nM] | SMILES |
| --- | --- | --- | --- | --- | --- | --- |
| > 10000 | 2890 | – | – | 165 | 46.1 | O=C(Nc1cc(F)c(=O)n(CC(F)F)c1)c1cc(C#C[C@H]2C[C@H](CO)C2)c(Cl)s1 [Compound 133d] |
| 3890 | 909 | 12.8 | 8.12 | – | – | N#Cc1sc(C(=O)Nc2cc(F)c(=O)n(CC(F)F)c2)cc1C#Cc1ccncc1 [Compound 134c] |
| > 10000 | 1330 | – | – | 58.7 | 18.8 | O=C(Nc1cc(F)c(=O)n(CC(F)F)c1)c1cc(C#C[C@H]2C[C@@H](CO)C2)c(Cl)s1 [Compound 134d] |
| > 10000 | 2380 | – | – | 334 | 160 | O=C(Nc1cc(F)c(=O)n(CC(F)F)c1)c1cc(C#CC23CC(CO)(C2)C3)c(Cl)s1 [Compound 135d] |
| > 10000 | 734 | 117 | 26.3 | – | – | O=C(Nc1cc(F)c(=O)n(CC(F)F)c1)c1cc(C#Cc2cocn2)c(Cl)s1 [Compound 136c] |
| > 10000 | 2220 | – | – | 85.2 | 41.9 | C[C@]1(C#Cc2cc(C(=O)Nc3cc(F)c(=O)n(CC(F)F)c3)sc2Cl)C[C@@H](O)C1 [Compound 136d] |
| > 10000 | > 10000 | – | – | > 50000 | > 50000 | N#Cc1cc(C(=O)Nc2cc(C(N)=O)c(=O)n(CC(F)F)c2)sc1C(F)(F)F [Compound 137d] |
| > 10000 | > 10000 | – | – | 4610 | 1680 | CC(N)C#Cc1cc(C(=O)Nc2cc(F)c(=O)n(CC(F)F)c2)sc1Cl (stereo not drawn) [Compound 138d] |
| 550 | 639 | 186 | 59.9 | – | – | Cc1nsc(C#Cc2cc(C(=O)Nc3cc(F)c(=O)n(CC(F)F)c3)sc2Cl)n1 [Compound 139c] |
| > 10000 | > 10000 | – | – | 6700 | 3100 | CC(N)CC#Cc1cc(C(=O)Nc2cc(F)c(=O)n(CC(F)F)c2)sc1Cl (stereo not drawn) [Compound 139d] |
| > 10000 | > 10000 | 63.3 | 34 | – | – | O=C1Cc2ccc(C#Cc3cc(C(=O)Nc4cc(F)c(=O)n(CC(F)F)c4)sc3Cl)cc2N1 [Compound 140c] |
| > 10000 | 7180 | – | – | 1770 | 772 | CN1CCCC(C#Cc2cc(C(=O)Nc3cc(F)c(=O)n(CC(F)F)c3)sc2Cl)C1 (stereo not drawn) [Compound 140d] |
| > 10000 | 6020 | 59.8 | 28 | – | – | Cc1nc2cc(C#Cc3cc(C(=O)Nc4cc(F)c(=O)n(CC(F)F)c4)sc3Cl)ccc2[nH]1 [Compound 141c] |
| 4650 | 3210 | 119 | 49.9 | – | – | O=C1Cc2c(C#Cc3cc(C(=O)Nc4cc(F)c(=O)n(CC(F)F)c4)sc3Cl)cccc2N1 [Compound 142c] |
| > 10000 | 458 | 8.17 | 6.08 | – | – | CC(=O)Nc1cc(C#Cc2cc(C(=O)Nc3cc(F)c(=O)n(CC(F)F)c3)sc2Cl)ccn1 [Compound 143c] |
| > 10000 | 1680 | 69.1 | 20.1 | – | – | Cn1ccc(C#Cc2cc(C(=O)Nc3cc(F)c(=O)n(CC(F)F)c3)sc2Cl)n1 [Compound 144c] |
| > 10000 | > 10000 | 208 | 81.7 | – | – | O=C(Nc1cc(F)c(=O)n(CC(F)F)c1)c1cc(C#Cc2ccc3c(c2)C(=O)NC3)c(Cl)s1 [Compound 145c] |
| > 10000 | > 10000 | 15300 | 9540 | – | – | CN1CCn2cc(C#Cc3cc(C(=O)Nc4cc(F)c(=O)n(CC(F)F)c4)sc3Cl)nc2C1 [Compound 146c] |
| > 10000 | > 10000 | 7960 | 5240 | – | – | O=C(Nc1cc(F)c(=O)n(CC(F)F)c1)c1cc(C#Cc2cn3c(n2)CNCC3)c(Cl)s1 [Compound 147c] |
| > 10000 | 4250 | 432 | 146 | – | – | CN(C)Cc1ncc(C#Cc2cc(C(=O)Nc3cc(F)c(=O)n(CC(F)F)c3)sc2Cl)n1C [Compound 148c] |
| > 10000 | > 10000 | 16100 | 8030 | – | – | CN(C)Cc1cc(C#Cc2cc(C(=O)Nc3cc(F)c(=O)n(CC(F)F)c3)sc2Cl)n(C)n1 [Compound 149c] |
